# Source: patent publication US5466809A (Toronto Research Chemicals, Inc., priority 1994, dated 1995)
# “And” between values parts separate entries of the source, which are not always exact repeats. Identical values can stand only once. Like-named read-outs stand apart in the source and are kept apart here.
# Assays:
# [1] = biological target: T1, Jack Bean alpha-mannosidase (Canavalia ensiformis, UniProt C0HJB3); assay: Jack Bean alpha-mannosidase assay; assay type: biochemical; settings: pH 6.0, 37° C., 30 minutes, p-nitrophenyl-alpha-D-mannopyranoside substrate; read-out: D50 Values (Inhibition), J.B. mannosidase (converted)
# T1 sequence (C0HJB3 1-981): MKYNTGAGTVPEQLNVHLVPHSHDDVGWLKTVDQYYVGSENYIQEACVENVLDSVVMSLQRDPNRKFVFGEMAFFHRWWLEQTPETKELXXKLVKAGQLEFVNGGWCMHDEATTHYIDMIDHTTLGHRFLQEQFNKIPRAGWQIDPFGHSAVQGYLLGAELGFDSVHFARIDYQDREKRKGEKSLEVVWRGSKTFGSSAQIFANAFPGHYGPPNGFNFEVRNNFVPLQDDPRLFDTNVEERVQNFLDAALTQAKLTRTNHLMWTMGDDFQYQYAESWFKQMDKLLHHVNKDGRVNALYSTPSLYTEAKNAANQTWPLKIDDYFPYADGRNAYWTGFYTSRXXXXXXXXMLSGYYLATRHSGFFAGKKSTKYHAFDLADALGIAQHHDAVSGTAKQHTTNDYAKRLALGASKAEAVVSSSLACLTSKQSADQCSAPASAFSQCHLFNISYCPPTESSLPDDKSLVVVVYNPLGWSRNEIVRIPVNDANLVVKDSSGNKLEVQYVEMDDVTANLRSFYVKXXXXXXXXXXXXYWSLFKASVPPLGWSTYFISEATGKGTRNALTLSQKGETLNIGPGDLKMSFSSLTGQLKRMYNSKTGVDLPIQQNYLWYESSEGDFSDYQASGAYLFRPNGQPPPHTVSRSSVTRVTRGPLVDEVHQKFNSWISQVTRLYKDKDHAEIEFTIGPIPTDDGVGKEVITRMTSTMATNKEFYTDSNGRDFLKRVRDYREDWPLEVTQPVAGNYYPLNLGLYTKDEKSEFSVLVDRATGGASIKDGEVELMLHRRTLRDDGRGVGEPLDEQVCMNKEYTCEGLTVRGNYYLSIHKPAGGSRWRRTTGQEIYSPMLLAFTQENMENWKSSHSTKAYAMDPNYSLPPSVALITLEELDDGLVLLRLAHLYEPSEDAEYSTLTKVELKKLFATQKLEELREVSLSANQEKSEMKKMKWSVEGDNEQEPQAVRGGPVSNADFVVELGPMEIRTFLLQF
# Protocol: Jack Bean alpha-Mannosidase Assay. […] A volume (37.5 ul) of 0.05M sodium acetate (pH 6.0) was added to each well, followed by 37.5 ul of 0.01M p-nitrophenyl-alpha-D-mannopyanoside, and then 10 ul of a 1:400 dilution of Jack Bean alpha-mannosidase. After thoroughly shaking to mix, the mixture was incubated at 37° C. for 30 minutes. The reaction was stopped by the addition of 150 ul of 0.5M sodium carbonate (pH 10.0). The absorbance at 405 nm of the solution in the wells was determined in an ELISA plate reader.
# [2] = tested on: N-linked oligosaccharide processing; assay: L-PHA lectin sensitivity assay for inhibition of N-linked oligosaccharide processing; assay type: cell-based
# Protocol: This test also indicates whether the compounds enter tumor cells and measures the degree of toxicity of the compounds for cells. The test is described in J. W. Dennis, Cancer Research 46:5131, 1986.
# Essentially, 2×10^4 cells are placed in individual wells of a 96-well microtest plate, wherein the wells contain serial dilutions of the compounds to be tested. […] […] The cells are then harvested and the amount of radioactivity incorporated into the host cell DNA is measured in a liquid scintillation counter. The amount of radioactivity present in cells in wells in the absence of L-PHA reflects the toxicity of the test compound and the amount of radioactivity present in the presence of L-PHA reflects the level of inhibition of oligosaccharide processing induced by the test compound.
# bone marrow cells [3] = assay: In vivo bone marrow CFU formation and bone marrow cellularity, dose dependent effect; design: species or system C57BL/6 mice; settings: for optimal dose / Effect on bone marrow cellularity and CFU formation compared with swainsonine (summary) / Effect on bone marrow cellularity and CFU formation (summary): summary of experiments; for Effect on bone marrow cellularity and CFU formation compared with swainsonine (summary): for 3 and 23 versus 10 μg swainsonine; for Mean of CFU Formation / Mean of Cellularity: 4 days
# Text: (§1) Assay for Bone Marrow Cell Proliferation Induced by Swansonine Analogues. Pathogen-free C57BL/6 mice at 8-14 weeks of age were quarantined for one week prior to their use in the experiments described below. Mice were inoculated intraperitoneally twice daily with a designated dose of swainsonine or an analogue of swainsonine for a period of four days. Eighteen hours following the last injection, the mice were sacrificed, bone marrow cells were obtained using standard technology (S. C. White et al., J. Natl. Cancer Inst. 83 1125, 1991). Cellularity of the bone marrow cells so obtained was determined by directly counting the cells after they were flushed from the femurs and tibia of the mice. The cells were processed according to the procedure described in the GIBCO-BRL Mouse Bone Stem Cell Proliferation Kit, and the number of colony forming units (CFU) was assessed using the procedures also described in the kit. For kinetic experiments, mice were administered 10 ug of the analogue (this was the optimum dose in all cases) twice daily for the designated number of days. The experiments were designed so that all regimens terminated on the same day. Eighteen hours after the last injection, the mice were sacrificed and bone marrow cells were obtained and processed as described above.
# bone marrow cells [4] = assay: In vivo bone marrow CFU formation and cellularity, time course (kinetic experiments); design: species or system C57BL/6 mice; settings: 10 μg twice daily i.p.
# Text: as §1
# [5] = L-PHA assay, 3H-thymidine incorporation, read-out: D50 Values (Inhibition), L-PHA assay
# [6] = Expt. 1, 10 μg twice daily i.p.
# [7] = Expt. 1, 20 μg twice daily i.p.
# [8] = Expt. 1, 40 μg twice daily i.p.
# [9] = Expt. 2, 10 μg twice daily i.p.
Compound,IC50 [1] [µM],"IC50 [2, 5] [µg/mL]",Effect on bone marrow cellularity and CFU formation compared with swainsonine (summary) (bone marrow cells [3]),"Mean of CFU Formation (bone marrow cells [3]; Expt. 1, 5 μg twice daily i.p.) [CFU]","Mean of Cellularity (bone marrow cells [3]; Expt. 1, 5 μg twice daily i.p.)",Mean of CFU Formation (bone marrow cells [3]; [6]),Mean of Cellularity (bone marrow cells [3]; [6]),Mean of CFU Formation (bone marrow cells [3]; [7]) [CFU],Mean of Cellularity (bone marrow cells [3]; [7]),Effect on bone marrow cellularity and CFU formation (summary) (bone marrow cells [3]),further results
"CCCC(=O)O[C@@H]1CN2CCC[C@@H](O)[C@@H]2[C@@H]1O [Compound 3, 1S-8a-β-2-alpha-butanoyloxyoctahydroindolizine-1-alpha-8-β-diol]",144,0.066,comparable to,,,,,,,,"amount of radioactivity incorporated by cells ([2]; 3H-thymidine incorporation, compared with swainsonine): comparable to that of swainsonine; optimal dose (bone marrow cells [3]): 10 µg"
"O=C(O[C@@H]1CN2CCC[C@@H](O)[C@@H]2[C@@H]1O)c1ccccc1 [Compound 5, 1S-8a-β-2-alpha-benzoyloxyoctahydroindolizine-1-alpha-8-β-diol]",252,0.5,,200,2.91 × 10^7,324 CFU,5.76 × 10^7,293,3.07 × 10^7,Stimulates CFU & cellularity,"Mean of CFU Formation (bone marrow cells [4]; 1 day): 250 CFU; Mean of Cellularity (bone marrow cells [4]; 1 day): 3.00 × 10^7; Mean of CFU Formation (bone marrow cells [4]; 2 days): 436 CFU; Mean of Cellularity (bone marrow cells [4]; 2 days): 4.18 × 10^7; Mean of CFU Formation (bone marrow cells [4]; 3 days): 568 CFU; Mean of Cellularity (bone marrow cells [4]; 3 days): 5.59 × 10^7; Mean of CFU Formation (bone marrow cells [4]; 4 days): 623 CFU; Mean of Cellularity (bone marrow cells [4]; 4 days): 7.42 × 10^7; Mean of CFU Formation (bone marrow cells [4]; 5 days): 621 CFU; Mean of Cellularity (bone marrow cells [4]; 5 days): 6.88 × 10^7; Mean of CFU Formation (bone marrow cells [4]; 6 days): 518 CFU; Mean of Cellularity (bone marrow cells [4]; 6 days): 5.24 × 10^7; Mean of CFU Formation (bone marrow cells [3]; [8]): 287 CFU; Mean of Cellularity (bone marrow cells [3]; [8]): 3.07 × 10^7; Mean of Cellularity (bone marrow cells [3]; Expt. 2, 5 μg twice daily i.p.): 3.33 × 10^7; Mean of Cellularity (bone marrow cells [3]; [9]): 4.76 × 10^7; Mean of Cellularity (bone marrow cells [3]; Expt. 2, 20 μg twice daily i.p.): 3.38 × 10^7"
"CCCCCCCC(=O)O[C@@H]1CN2CCC[C@@H](O)[C@@H]2[C@@H]1O [Compound 6, 1S-8a-β-2-alpha-octanoyloxyoctahydroindolizine-1-alpha-8-β-diol]",117,0.066,not approximating swainsonine,200,2.57 × 10^7,437 CFU,3.83 × 10^7,295,2.73 × 10^7,Stimulates CFU and cellularity,Mean of CFU Formation (bone marrow cells [4]; 1 day): 250 CFU; Mean of Cellularity (bone marrow cells [4]; 1 day): 3.56 × 10^7; Mean of CFU Formation (bone marrow cells [4]; 2 days): 432 CFU; Mean of Cellularity (bone marrow cells [4]; 2 days): 4.63 × 10^7; Mean of CFU Formation (bone marrow cells [4]; 3 days): 550 CFU; Mean of Cellularity (bone marrow cells [4]; 3 days): 5.88 × 10^7; Mean of CFU Formation (bone marrow cells [4]; 4 days): 618 CFU; Mean of Cellularity (bone marrow cells [4]; 4 days): 7.63 × 10^7; Mean of CFU Formation (bone marrow cells [4]; 5 days): 614 CFU; Mean of Cellularity (bone marrow cells [4]; 5 days): 6.25 × 10^7; Mean of CFU Formation (bone marrow cells [4]; 6 days): 488 CFU; Mean of Cellularity (bone marrow cells [4]; 6 days): 5.38 × 10^7
"CCOC1CC(=O)N2C[C@@H](O)[C@@H](O)[C@H]2[C@@H]1O (stereo partly drawn) [Compound 23, 7-ethoxy-(1S,2R,8R,8aR)-1,2,8-trihydroxy-octahydro-5-oxyindolizine]",43.2,> 1,comparable to,,,,,,,,optimal dose (bone marrow cells [3]): 10 µg
"O[C@@H]1[C@H](O)[C@H](O)CN2C[C@@H](O)[C@@H](O)[C@@H]12 [Compound 36, 1S-1-alpha-2-alpha-6β,7β-8β-pentahydroxy-8a-β-octahydroindolizine]",,,,291,2.28 × 10^7,545 CFU,5.27 × 10^7,327,2.59 × 10^7,,
"Cc1ccc(C(=O)O[C@@H]2CN3CCC[C@@H](O)[C@@H]3[C@@H]2O)cc1 [Compound 41, 1S-8a-β-2-alpha-p-toluoyloxyoctahydroindolizine-1-alpha-8-β-diol]",343,1,,195,2.22 × 10^7,359 CFU,2.99 × 10^7,214,2.14 × 10^7,Stimulates CFU & cellularity,
"O=C(O[C@@H]1CN2CCC[C@@H](O)[C@@H]2[C@@H]1O)c1ccc([N+](=O)[O-])cc1 [Compound 42, 1S-8a-β-2-alpha-p-nitorbenzoyloxyoctahydroindolizine-1-alpha-8-β-diol]",109,0.066,,213,2.68 × 10^7,373 CFU,3.21 × 10^7,242,2.63 × 10^7,Stimulates CFU & cellularity,
"O=C1N[C@@H]2[C@@H](O)[C@@H](O)[C@H](O)[C@@H](CO)N2C1=O [Kefunensine, reference compound]",151,1,,,,,,,,,
"O[C@H]1[C@H]2[C@H](O)CCCN2C[C@H]1O [swainsonine, 1S-8a-β-octahydroindolizine-1-alpha-2-alpha-8-β-triol, reference compound]",,0.033,,,,550 CFU and 446 CFU,5.86 × 10^7 and 3.73 × 10^7,,,,"IC50 ([2]; 30 ug/ml L-PHA, read-out: I50): ~0.02 µg/mL and ~100 nM; Mean of Cellularity (bone marrow cells [3]; [9]): 5.76 × 10^7"
